We go through 1 compound from US10278969B2, “Pharmaceutical dosage forms” (Novartis AG, priority 2013, dated 2019).

The nature of the data set: Chemical stability: hydrolysis degradation of the Compound on processing. Type of data set: physicochemical. To be noted: urea bond cleavage into aniline and aminopyrimidine degradants. The text has this: In view of the above mentioned difficulties, the inventors tried to compact the voluminous Compound together with excipients without the use of aqueous media. […] There could be various root causes for the degradation problem. The inventor had run numerous experimental trials to identify the cause.

For the compound `CCN1CCN(c2ccc(Nc3cc(N(C)C(=O)Nc4c(Cl)c(OC)cc(OC)c4Cl)ncn3)cc2)CC1` [the Compound, 3-(2,6-Dichloro-3,5-dimethoxy-phenyl)-1-{6-[4-(4-ethyl-piperazin-1-yl)-phenylamino]-pyrimidin-4-yl}-1-methyl-urea], the “Chemical stability (hydrolysis degradation products)” value was “prone to hydrolysis”.
